For test [1], the target named is T1, AT5monAIV of monensin PKS (Streptomyces virginiae, UniProt Q846X3).
T1 construct: gene monAIV; excised AT domain of module 5, synthetic gene, E. coli BL21(DE3), Ni-NTA
As to the kind of experiment: trans-acylation of holo-ACP10FkbA, HPLC-MS. As to conditions: 16 uM acyl-CoA, 16 uM holo-ACP10FkbA, 1.6 uM AT, pH 8.0, 25 C, 2 h. In kind it is biochemical. The text has this:
trans-acylation of holo-ACP10FkbA, HPLC-MS on AT5monAIV of monensin PKS

Test [2] addresses T1, AT5monAIV of monensin PKS. As to the kind of experiment: self-acylation, HPLC-MS of intact protein. As to conditions: 200 uM acyl-CoA, 20 uM AT, pH 8.0, 25 C, 1 h; covalent acyl-enzyme. The test is classed as biochemical. The text has this: (§1) self-acylation, HPLC-MS of intact protein on AT5monAIV of monensin PKS
The target in test [3] is T2, AT4FkbB of FK520 PKS (Streptomyces hygroscopicus, UniProt Q9KIE0).
T2 construct: gene fkbB; excised AT domain of module 4 of FkbB, synthetic gene, E. coli BL21(DE3), Ni-NTA
As to the kind of experiment: self-acylation, HPLC-MS of intact protein. The test is classed as biochemical. As to conditions: 200 uM acyl-CoA, 20 uM AT, pH 8.0, 25 C, 1 h; covalent acyl-enzyme. The text has this:
(§2) self-acylation, HPLC-MS of intact protein on AT4FkbB of FK520 PKS

Test [4] addresses T2, AT4FkbB of FK520 PKS. Briefly: self-acylation, HPLC-MS of intact protein. In kind it is biochemical. The conditions noted are these: 200 uM acyl-CoA, 20 uM AT, pH 8.0, 25 C, 1 h; covalent acyl-enzyme.
Description: as §2
The source holds these as a separate data set.

Test [5] deals with T3, AT4FkbB of FK506 PKS (Streptomyces tsukubensis, UniProt W8RMH0, Q6687A).
T3 construct: gene fkbB; excised AT domain of module 4 of FkbB, E. coli BL21(DE3), Ni-NTA
Briefly: self-acylation, HPLC-MS of intact protein. As to conditions: 200 uM acyl-CoA, 20 uM AT, pH 8.0, 25 C, 1 h; covalent acyl-enzyme. In kind it is biochemical. The text has this:
(§3) self-acylation, HPLC-MS of intact protein on AT4FkbB of FK506 PKS

Test [6] concerns the target T4, AT4FkbB of FK506 PKS (Streptomyces tsukubensis, UniProt W8RMH0, Q6687A/L6753I/V6754D/V6755T/F6771L).
T4 construct: gene fkbB; excised AT domain of module 4 of FkbB, E. coli BL21(DE3), Ni-NTA
Briefly: self-acylation, HPLC-MS of intact protein. In kind it is biochemical. The conditions noted are these: 200 uM acyl-CoA, 20 uM AT, pH 8.0, 25 C, 1 h; covalent acyl-enzyme.
Description: as §3

Test [7] deals with T5, AT4FkbB of FK506 PKS (Streptomyces tsukubensis, UniProt W8RMH0, V6755K).
T5 construct: gene fkbB; excised AT domain of module 4 of FkbB, E. coli BL21(DE3), Ni-NTA
Briefly: self-acylation, HPLC-MS of intact protein. As to conditions: 200 uM acyl-CoA, 20 uM AT, pH 8.0, 25 C, 1 h; covalent acyl-enzyme. In kind it is biochemical.
Description: as §3

Test [8] deals with T6, AT4FkbB of FK506 PKS (Streptomyces tsukubensis, UniProt W8RMH0, L6753I/V6754D/V6755T).
T6 construct: gene fkbB; excised AT domain of module 4 of FkbB, E. coli BL21(DE3), Ni-NTA
Briefly: self-acylation, HPLC-MS of intact protein. In kind it is biochemical. The conditions noted are these: 200 uM acyl-CoA, 20 uM AT, pH 8.0, 25 C, 1 h; covalent acyl-enzyme.
Description: as §3

Test [9] concerns the target T7, AT4FkbB of FK506 PKS (Streptomyces tsukubensis, UniProt W8RMH0).
T7 construct: gene fkbB; excised AT domain of module 4 of FkbB, E. coli BL21(DE3), Ni-NTA
Briefly: self-acylation, HPLC-MS of intact protein. The test is classed as biochemical. As to conditions: 200 uM acyl-CoA, 20 uM AT, pH 8.0, 25 C, 1 h; covalent acyl-enzyme at Ser89.
Description: as §3

In test [10] the target is T8, AT3lsd12 of lasalocid PKS (Streptomyces lasalocidi, UniProt B6ZK65).
T8 construct: gene lsd12; excised AT domain of module 3, synthetic gene, E. coli BL21(DE3), Ni-NTA
As to the kind of experiment: self-acylation, HPLC-MS of intact protein. In kind it is biochemical. The conditions noted are these: 200 uM acyl-CoA, 20 uM AT, pH 8.0, 25 C, 1 h; covalent acyl-enzyme. The text has this: (§4) self-acylation, HPLC-MS of intact protein on AT3lsd12 of lasalocid PKS

Test [11] concerns the target T8, AT3lsd12 of lasalocid PKS. As to the kind of experiment: self-acylation, HPLC-MS of intact protein. In kind it is biochemical. The conditions noted are these: 200 uM acyl-CoA, 20 uM AT, pH 8.0, 25 C, 1 h; covalent acyl-enzyme.
Description: as §4
This is another data set of the same source.

The target of test [12] is T2, AT4FkbB of FK520 PKS. Briefly: self-acylation, HPLC-MS of intact protein. The test is classed as biochemical. As to conditions: 200 uM acyl-CoA, 20 uM AT, pH 8.0, 25 C, 1 h; covalent acyl-enzyme.
Description: as §2
This is another data set of the same source.

Test [13] in a line: self-acylation, HPLC-MS of intact protein. In kind it is biochemical, Streptomyces virginiae. As to conditions: 200 uM acyl-CoA, 20 uM AT, pH 8.0, 25 C, 1 h; covalent acyl-enzyme.
Description: as §1

From article PMC6090053, “Substrate Specificity of Acyltransferase Domains for Efficient Transfer of Acyl Groups” (Frontiers in Microbiology, 2018) come the findings set out here.

T8 sequence (B6ZK65 entry or part of it): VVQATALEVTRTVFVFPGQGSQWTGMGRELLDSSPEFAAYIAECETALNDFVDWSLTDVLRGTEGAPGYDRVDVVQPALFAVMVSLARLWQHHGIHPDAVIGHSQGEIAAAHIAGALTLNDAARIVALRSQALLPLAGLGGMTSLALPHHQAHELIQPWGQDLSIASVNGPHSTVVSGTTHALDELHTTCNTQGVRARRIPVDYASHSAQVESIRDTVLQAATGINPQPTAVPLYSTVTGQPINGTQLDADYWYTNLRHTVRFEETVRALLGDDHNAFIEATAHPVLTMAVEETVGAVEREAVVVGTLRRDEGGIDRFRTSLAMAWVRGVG
T2 sequence (Q9KIE0 entry or part of it): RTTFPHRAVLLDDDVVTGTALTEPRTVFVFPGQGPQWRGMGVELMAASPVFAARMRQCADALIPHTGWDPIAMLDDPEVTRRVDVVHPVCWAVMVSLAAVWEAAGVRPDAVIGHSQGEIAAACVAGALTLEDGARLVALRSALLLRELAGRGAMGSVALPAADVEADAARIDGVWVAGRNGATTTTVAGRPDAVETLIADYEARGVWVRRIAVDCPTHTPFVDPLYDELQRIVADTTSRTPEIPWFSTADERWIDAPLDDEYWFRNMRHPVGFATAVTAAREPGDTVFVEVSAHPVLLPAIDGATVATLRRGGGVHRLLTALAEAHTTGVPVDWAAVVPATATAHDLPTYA
T1 sequence (Q846X3 entry or part of it): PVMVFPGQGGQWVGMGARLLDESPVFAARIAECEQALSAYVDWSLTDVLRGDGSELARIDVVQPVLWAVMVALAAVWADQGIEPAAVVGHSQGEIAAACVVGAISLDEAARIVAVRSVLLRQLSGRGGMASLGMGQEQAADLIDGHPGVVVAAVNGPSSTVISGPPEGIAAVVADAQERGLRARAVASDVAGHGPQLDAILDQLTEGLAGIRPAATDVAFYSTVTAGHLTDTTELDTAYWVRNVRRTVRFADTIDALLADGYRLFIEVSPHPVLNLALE
T5 sequence (W8RMH0 entry or part of it V6755K): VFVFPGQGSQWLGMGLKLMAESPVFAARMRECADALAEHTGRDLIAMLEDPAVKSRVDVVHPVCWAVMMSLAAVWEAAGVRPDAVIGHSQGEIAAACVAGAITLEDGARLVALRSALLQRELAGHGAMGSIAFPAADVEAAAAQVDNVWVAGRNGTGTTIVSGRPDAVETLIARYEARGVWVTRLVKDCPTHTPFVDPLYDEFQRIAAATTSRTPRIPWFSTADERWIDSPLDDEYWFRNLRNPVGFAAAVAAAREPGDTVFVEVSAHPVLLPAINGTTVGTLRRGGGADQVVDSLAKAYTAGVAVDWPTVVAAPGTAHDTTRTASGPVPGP
T7 sequence (W8RMH0 entry or part of it): as the sequence (W8RMH0 entry or part of it V6755K) above, with K187V counted along it
T3 sequence (W8RMH0 entry or part of it Q6687A): as the sequence (W8RMH0 entry or part of it V6755K) above, with Q119A, K187V counted along it
T4 sequence (W8RMH0 entry or part of it Q6687A/L6753I/V6754D/V6755T/F6771L): as the sequence (W8RMH0 entry or part of it V6755K) above, with Q119A, L185I, V186D, K187T, F203L counted along it
T6 sequence (W8RMH0 entry or part of it L6753I/V6754D/V6755T): as the sequence (W8RMH0 entry or part of it V6755K) above, with L185I, V186D, K187T counted along it

For the compound `CC(C(=O)O)C(=O)SCCNC(=O)CCNC(=O)[C@H](O)C(C)(C)COP(=O)(O)OP(=O)(O)OC[C@H]1O[C@@H](n2cnc3c(N)ncnc32)[C@H](O)[C@@H]1OP(=O)(O)O` (some centres unmarked) [MM-CoA], the “Trans-acylation reaction (%) / MM-ACP10FkbA” value in [1] is 51.2%.
For `C=CCC(C(=O)O)C(=O)SCCNC(=O)CCNC(=O)[C@H](O)C(C)(C)COP(=O)(O)OP(=O)(O)OC[C@H]1O[C@@H](n2cnc3c(N)ncnc32)[C@H](O)[C@@H]1OP(=O)(O)O` (some centres unmarked) [allmal-CoA], the “Self-acylation reaction (%) / Allmal-AT4FkbB^∗” value in test [2] is reported as 49.8%; at AT4FkbB of FK520 PKS [3], 31.5%; at AT4FkbB of FK520 PKS [4] it was 61.3%; in test [10], 17.8%; in [11] it was 41.4%; on AT4FkbB of FK520 PKS [12], 58.2%. Moreover, the “Self-acylation reaction (%) / Allmal-AT4^∗FkbB” value on AT4FkbB of FK506 PKS [5] came out at 29.2%; on AT4FkbB of FK506 PKS [6], 27.1%; on AT4FkbB of FK506 PKS [7], 78.8%; on AT4FkbB of FK506 PKS [8] it was 28.0%; at AT4FkbB of FK506 PKS [9], 69.7%.
Consider `CCC(C(=O)O)C(=O)SCCNC(=O)CCNC(=O)[C@H](O)C(C)(C)COP(=O)(O)OP(=O)(O)OC[C@H]1O[C@@H](n2cnc3c(N)ncnc32)[C@H](O)[C@@H]1OP(=O)(O)O` (some centres unmarked) [ethmal-CoA], for which the “Self-acylation reaction (%) / Ethmal-AT4FkbB^∗” value on AT4FkbB of FK520 PKS [3] was determined as 65.1%; in test [13] it was 63.7%; in [10], 78.1%. For the same compound, the figures for the “Self-acylation reaction (%) / Ethmal-AT4^∗FkbB” value on AT4FkbB of FK506 PKS [7] and on AT4FkbB of FK506 PKS [9] were 32.3% and 62.0%, respectively.
